Reference: patent US20260256789A1, “METHODS FOR TREATMENT OF CANCER” (Frontier Medicines Corporation, priority 2022, published 2026)

Target: T1, KRAS G12C (GMPPNP-loaded) and cRAF Ras-binding domain (Homo sapiens, UniProt P01116, C118S/C51S/C80L/G12C)
T1 construct: truncated version comprising amino acids 1-169
Experiment: Inhibition of KRAS G12C and cRAF binding (AlphaScreen)
Settings: KRAS G12C preloaded with GTP analogue GMPPNP, 2 hours preincubation
Outline: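 AlphaScreen used biotin-AviTag KRAS G12C (Cys-light, aa 1-169; 0.5 nM), GMPPNP-loaded, preincubated 2 h with compound (top 50 μM, 1:3, 10 points, 2% DMSO) in pH 7.4 Hepes buffer with 10 μM GMPPNP. GST-cRAF RBD (aa 50-131; 0.75 nM) plus beads were then added for 60-90 min at room temperature, and IC50 came from a 4-parameter fit.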

T1 sequence (P01116 1-169 isoform P01116-2 G12C/C51S/C80L/C118S): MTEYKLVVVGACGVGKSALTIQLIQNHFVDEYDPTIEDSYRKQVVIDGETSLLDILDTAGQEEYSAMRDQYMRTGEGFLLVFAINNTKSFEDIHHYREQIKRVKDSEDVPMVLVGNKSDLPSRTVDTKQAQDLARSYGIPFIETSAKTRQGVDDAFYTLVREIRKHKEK

Row | IC50 | SMILES
1 | 0.1 to 0.5 µM | C=CC(=O)N1CC[C@@H](N(C)c2nc(OCC34CCCN3CCC4)nc3c2C[C@H](C)[C@@H](c2nc(N)cc(C)c2C(F)(F)F)C3)C1 [Example 148, 1-((R)-3-(((6S,7S)-7-(6-amino-4-methyl-3-(trifluoromethyl)pyridin-2-yl)-6-methyl-2-((tetrahydro-1H-pyrrolizin-7a(5H)-yl)methoxy)-5,6,7,8-tetrahydroquinazolin-4-yl)(methyl)amino)pyrrolidin-1-yl)prop-2-en-1-one]
2 | 0.1 to 0.5 µM | C=CC(=O)N1CC(CN(C)c2nc(OC[C@@]34CCCN3C[C@H](F)C4)nc3c(F)c(-c4nc(N)ccc4C(F)(F)F)ncc23)C1 [Example 54, 1-(3-(((7-(6-amino-3-(trifluoromethyl)pyridin-2-yl)-8-fluoro-2-(((2R,7aS)-2-fluorohexahydro-1H-pyrrolizin-7a-yl)methoxy)pyrido[4,3-d]pyrimidin-4-yl)(methyl)amino)methyl)azetidin-1-yl)prop-2-en-1-one]
3 | 0.1 to 0.5 µM | C=CC(=O)N1CC[C@@H](N(C)c2nc(OCC34CCCN3CCC4)nc3c(F)c(-c4nc(N)cc5cccc(F)c45)ncc23)C1 [Example 75, (R)-1-(3-((7-(3-amino-8-fluoroisoquinolin-1-yl)-8-fluoro-2-((hexahydro-1H-pyrrolizin-7a-yl)methoxy)pyrido[4,3-d]pyrimidin-4-yl)(methyl)amino)pyrrolidin-1-yl)prop-2-en-1-one]
4 | 0.1 to 0.5 µM | CN1CC[C@H]1/C=C/C(=O)N1CC[C@@H](N(C)c2nc(OC[C@@]34CCCN3C[C@H](F)C4)nc3c(F)c(-c4nc(N)cc5cccc(F)c45)ncc23)C1 (single isomer, unassigned) [Example 2]
5 | ≥ 0.5 µM | CN(CC1CN(C(=O)/C=C/CN2CCOCC2)C1)c1nc(OC[C@@]23CCCN2C[C@H](F)C3)nc2c(F)c(-c3nc(N)cc4cccc(F)c34)ncc12 [Example 80, (E)-1-(3-(((7-(3-amino-8-fluoroisoquinolin-1-yl)-8-fluoro-2-(((2R,7aS)-2-fluorotetrahydro-1H-pyrrolizin-7a(5H)-yl)methoxy)pyrido[4,3-d]pyrimidin-4-yl)(methyl)amino)methyl)azetidin-1-yl)-4-morpholinobut-2-en-1-one]
6 | ≥ 0.5 µM | Cc1cc(N)nc(N2CCc3c(nc(OC[C@@]45CCCN4C[C@H](F)C5)nc3N(C)[C@@H]3CCN(C#N)C3)C2)c1C(F)(F)F [Example 203]
7 | ≥ 0.5 µM | C=CC(=O)N1CC[C@@H](N(C)c2nc(OC[C@@]34CCCN3C[C@H](F)C4)nc3c(F)c(-c4ccccc4OC(F)F)ncc23)C1 [Example 182]
8 | ≥ 0.5 µM | C=CC(=O)N1CC[C@@H](N(C)c2nc(OC[C@@]34CCCN3C[C@H](F)C4)nc3c2C[C@H](C)[C@@H](c2nc(N)cc(C)c2C(F)(F)F)C3)C1 [Example 145, 1-((R)-3-(((6S,7S)-7-(6-amino-4-methyl-3-(trifluoromethyl)pyridin-2-yl)-2-(((2R,7aS)-2-fluorotetrahydro-1H-pyrrolizin-7a(5H)-yl)methoxy)-6-methyl-5,6,7,8-tetrahydroquinazolin-4-yl)(methyl)amino)pyrrolidin-1-yl)prop-2-en-1-one]
9 | 0.1 to 0.5 µM | Cc1cc(/C=C/C(=O)N2CC[C@@H](N(C)c3nc(OC[C@@]45CCCN4C[C@H](F)C5)nc4c(F)c(-c5cccc(Cl)c5C5CC5)ncc34)C2)nc(C)n1 [Example 247]
10 | 0.01 to 0.1 µM | CN1CC[C@H]1/C=C/C(=O)N1CC[C@@H](N(C)c2nc(OC[C@@]34CCCN3C[C@H](F)C4)nc3c(F)c(-c4nc(N)cc5cccc(Cl)c45)ncc23)C1 [Example 108]
11 | 0.1 to 0.5 µM | Cc1cc(/C=C/C(=O)N2CC(CN(C)c3nc(OC[C@@]45CCCN4C[C@H](F)C5)nc4c(F)c(-c5cccc(Cl)c5C5CC5)ncc34)C2)nc(C)n1 [Example 200]
12 | < 0.01 µM | Cc1noc(/C=C/C(=O)N2CC[C@@H](N(C)c3nc(OC[C@@]45CCCN4C[C@H](F)C5)nc4c3CC(C)C(c3nc(N)cc(C)c3C(F)(F)F)C4)C2)n1 (stereo partly drawn) [Example 65, (E)-1-((3R)-3-((7-(6-amino-4-methyl-3-(trifluoromethyl)pyridin-2-yl)-2-(((2R,7aS)-2-fluorohexahydro-1H-pyrrolizin-7a-yl)methoxy)-6-methyl-5,6,7,8-tetrahydroquinazolin-4-yl)(methyl)amino)pyrrolidin-1-yl)-3-(3-methyl-1,2,4-oxadiazol-5-yl)prop-2-en-1-one]
13 | 0.01 to 0.1 µM | CN(c1nc(OC[C@@]23CCCN2C[C@H](F)C3)nc2c(F)c(-c3cccc(Cl)c3C3CC3)ncc12)[C@@H]1CCN(C(=O)/C=C/CN2C3COCC2C3)C1 [Example 256]
14 | ≥ 0.5 µM | C=CC(=O)N1CC[C@@H](N(C)c2nc(OC[C@@]34CCCN3C[C@H](F)C4)nc3c(F)c(-c4c(O)cccc4Cl)ncc23)C1 [Example 229]
15 | < 0.01 µM | Cc1cc(N)nc(-c2ncc3c(N(C)[C@@H]4CCN(C(=O)/C=C/c5nc(C(C)(C)O)no5)C4)nc(OC[C@@]45CCCN4C[C@H](F)C5)nc3c2F)c1C(F)(F)F [Example 139]
16 | < 0.01 µM | Cc1cc(N)nc(-c2ncc3c(N(C)[C@@H]4CCN(C(=O)/C=C/[C@@H]5CCN5C)C4)nc(OC[C@@]45CCCN4C[C@H](F)C5)nc3c2F)c1C(F)(F)F (single isomer, unassigned) [Example 27]

Row | IC50 | SMILES
17 | < 0.01 µM | Cc1cc(N)nc(-c2ncc3c(N(C)[C@@H]4CCN(C(=O)/C=C/c5nc(C(C)(F)F)no5)C4)nc(OC[C@@]45CCCN4C[C@H](F)C5)nc3c2F)c1C(F)(F)F [Example 56, (E)-1-((R)-3-((7-(6-amino-4-methyl-3-(trifluoromethyl)pyridin-2-yl)-8-fluoro-2-(((2R,7aS)-2-fluorotetrahydro-1H-pyrrolizin-7a(5H)-yl)methoxy)pyrido[4,3-d]pyrimidin-4-yl)(methyl)amino)pyrrolidin-1-yl)-3-(3-(1,1-difluoroethyl)-1,2,4-oxadiazol-5-yl)prop-2-en-1-one]
18 | ≥ 0.5 µM | C=CC(=O)N1CCC(N(C)c2nc(OC[C@@]34CCCN3C[C@H](F)C4)nc3c(F)c(-c4n[nH]c5cccc(Cl)c45)ncc23)C1 (some centres unmarked) [Example 224]
19 | < 0.01 µM | Cc1cc(N)nc(-c2ncc3c(N(C)[C@@H]4CCN(C(=O)/C=C/[C@@H]5CCN5C)C4)nc(OC[C@@]45CCCN4C[C@H](F)C5)nc3c2F)c1C(F)(F)F [Example 83]
20 | 0.01 to 0.1 µM | Cc1nsc(/C=C/C(=O)N2CC[C@@H](N(C)c3nc(OC[C@@]45CCCN4C[C@H](F)C5)nc4c3C[C@@H](C)[C@H](c3nc(N)cc(C)c3C(F)(F)F)C4)C2)n1 [Example 158, (E)-1-((R)-3-(((6R,7R)-7-(6-amino-4-methyl-3-(trifluoromethyl)pyridin-2-yl)-2-(((2R,7aS)-2-fluorotetrahydro-1H-pyrrolizin-7a(5H)-yl)methoxy)-6-methyl-5,6,7,8-tetrahydroquinazolin-4-yl)(methyl)amino)pyrrolidin-1-yl)-3-(3-methyl-1,2,4-thiadiazol-5-yl)prop-2-en-1-one]
21 | ≥ 0.5 µM | C=CC(=O)N1CC[C@@H](N(C)c2nc(OC[C@@]34CCCN3C[C@H](F)C4)nc3c(F)c(-c4cncnc4C4CC4)ncc23)C1 [Example 260]
22 | < 0.01 µM | C=CC(=O)N1CC[C@@H](N(C)c2nc(OC[C@@]34CCCN3C[C@H](F)C4)nc3c(F)c(-c4cc(O)cc(Cl)c4C(F)(F)F)ncc23)C1 [Example 248]
23 | ≥ 0.5 µM | C=CC(=O)N1CC[C@@H](N(C)c2nc(OC[C@@]34CCCN3C[C@H](F)C4)nc3c(F)c(-c4cc(O)c(C)cc4C4CC4)ncc23)C1 [Example 228]
24 | < 0.01 µM | Cc1cc(N)nc(-c2ncc3c(N(C)CC4CN(C(=O)/C=C/c5nc(C6CC6)no5)C4)nc(OC[C@@]45CCCN4C[C@H](F)C5)nc3c2F)c1C(F)(F)F [Example 176]
25 | 0.01 to 0.1 µM | Cc1nccc(/C=C/C(=O)N2CC(CN(C)c3nc(OC[C@@]45CCCN4C[C@H](F)C5)nc4c(F)c(-c5nc(N)cc6cccc(F)c56)ncc34)C2)n1 [Example 141, (E)-1-(3-(((7-(3-amino-8-fluoroisoquinolin-1-yl)-8-fluoro-2-(((2R,7aS)-2-fluorotetrahydro-1H-pyrrolizin-7a(5H)-yl)methoxy)pyrido[4,3-d]pyrimidin-4-yl)(methyl)amino)methyl)azetidin-1-yl)-3-(2-methylpyrimidin-4-yl)prop-2-en-1-one]
26 | 0.01 to 0.1 µM | CN(c1nc(OC[C@@]23CCCN2C[C@H](F)C3)nc2c(F)c(-c3cccc(Cl)c3C3CC3)ncc12)[C@@H]1CCN(C(=O)C#CCN2CC3CCC(C2)O3)C1 [Example 257]
27 | 0.01 to 0.1 µM | Cc1noc(/C=C/C(=O)N2CC[C@@H](N(C)c3nc(OCC45CCCN4CCC5)nc4c3C[C@H](C)C(c3nc(N)cc(C)c3C(F)(F)F)C4)C2)n1 (stereo in doubt) [Example 163]
28 | ≥ 0.5 µM | Cc1cc(N)nc(N2CCc3c(nc(OC[C@@]45CCCN4C[C@H](F)C5)nc3N(C)[C@@H]3CCN(C(=O)/C=C/c4nc(C(C)C)no4)C3)C2)c1C(F)(F)F [Example 147, (E)-1-((R)-3-((7-(6-amino-4-methyl-3-(trifluoromethyl)pyridin-2-yl)-2-(((2R,7aS)-2-fluorotetrahydro-1H-pyrrolizin-7a(5H)-yl)methoxy)-5,6,7,8-tetrahydropyrido[3,4-d]pyrimidin-4-yl)(methyl)amino)pyrrolidin-1-yl)-3-(3-isopropyl-1,2,4-oxadiazol-5-yl)prop-2-en-1-one]
29 | 0.01 to 0.1 µM | CN(c1nc(OC[C@@]23CCCN2C[C@H](F)C3)nc2c(F)c(-c3cccc(Cl)c3C3CC3)ncc12)[C@@H]1CCN(C(=O)/C=C/CN2C[C@@H]3C[C@H]2CO3)C1 [Example 231]
30 | ≥ 0.5 µM | C=CC(=O)N1CC[C@@H](N(C)c2nc(OC[C@@]34CCCN3C[C@H](F)C4)nc3c(F)c(-c4cc(C(F)F)cc(Cl)c4C4CC4)ncc23)C1 [Example 263]
31 | 0.01 to 0.1 µM | CC(C)c1noc(/C=C/C(=O)N2CC[C@@H](N(C)c3nc(OC[C@@]45CCCN4C[C@H](F)C5)nc4c(F)c(-c5nc(N)ccc5OC(F)F)ncc34)C2)n1 [Example 214]
32 | < 0.01 µM | CN1CC[C@@H]1/C=C/C(=O)N1CC[C@@H](N(C)c2nc(OC[C@@]34CCCN3C[C@H](F)C4)nc3c(F)c(-c4cc(O)cc(F)c4C4CC4)ncc23)C1 [Example 180]
